Data published in PMC4494852, “Microwave-assisted preparation, structural characterization, lipophilicity, and anti-cancer assay of some hydroxycoumarin derivatives” (Monatshefte Fur Chemie, 2014).

Key:
[1] = Lipophilicity by reversed-phase TLC on RP-18 WF254s plates with standardization; conditions: for φ 0 (intercept of the trend line with abscissa axis): molar fraction for which lipophilicity equals 0
[2] = known logP of standards; cited from earlier work

| S (slope of the trend line RM vs φ) ([1]; acetonitrile/water) | φ 0 (intercept of the trend line with abscissa axis) ([1]; acetonitrile/water) | S (slope of the trend line RM vs φ) ([1]; dioxane/water) | φ 0 (intercept of the trend line with abscissa axis) ([1]; dioxane/water) | S (slope of the trend line RM vs φ) ([1]; isopropanol/water) | φ 0 (intercept of the trend line with abscissa axis) ([1]; isopropanol/water) | S (slope of the trend line RM vs φ) ([1]; methanol/water) | φ 0 (intercept of the trend line with abscissa axis) ([1]; methanol/water) | melting point [°C] | Structure (SMILES) | LogP value [2] | R M0 (lipophilicity extrapolated to 100 % water) ([1]; acetonitrile/water) | R M0 (lipophilicity extrapolated to 100 % water) ([1]; dioxane/water) | R M0 (lipophilicity extrapolated to 100 % water) ([1]; isopropanol/water) | R M0 (lipophilicity extrapolated to 100 % water) ([1]; methanol/water) |
| --- | --- | --- | --- | --- | --- | --- | --- | --- | --- | --- | --- | --- | --- | --- |
| 2.9356 | 0.425 | 2.5162 | 0.409 | 2.8074 | 0.362 | 1.8855 | 0.526 |  | CC(=O)c1cc2c(C)cc(=O)oc2cc1O [Compound 11, 6-Acetyl-7-hydroxy-4-methylcoumarin] |  |  |  |  |  |
| 3.7596 | 0.517 | 3.2502 | 0.501 | 3.2079 | 0.383 | 2.3247 | 0.577 | 283 to 284 | CC(=O)c1c(C)cc2oc(=O)cc(C)c2c1OCC#N [Compound 6, 6-acetyl-5-(cyanomethoxy)-4,7-dimethylchromen-2-one] |  |  |  |  |  |
| 4.1309 |  | 3.8375 |  | 4.6873 |  | 2.9469 |  |  | c1ccc(Nc2ccccc2)cc1 [Diphenylamine, diphenylamine, reference compound] |  |  |  |  |  |
| 3.5551 |  | 3.0847 |  | 4.1116 |  | 2.4827 |  |  | CC(=O)Nc1ccc(Cl)c(Cl)c1 [3,4-Dichloroacetanilide, reference compound] | 2.96 |  |  |  |  |
| 5.2957 |  | 5.0853 |  | 6.2485 |  | 4.067 |  |  | c1ccc(Cc2ccccc2)cc1 [Diphenylmethane, diphenylmethane, reference compound] | 4.14 |  |  |  |  |
| 2.0876 | 0.346 | 1.8746 | 0.356 | 1.6695 | 0.309 | 1.9022 | 0.506 |  | O=c1ccc2ccc(O)cc2o1 [Compound 7, umbelliferone] |  | 0.7232 | 0.6676 | 0.5162 | 0.9623 |
| 3.0614 | 0.464 | 3.2472 | 0.508 | 2.6277 | 0.446 | 2.5967 | 0.697 |  | CC(=O)c1c(O)ccc2c(C)cc(=O)oc12 [Compound 9, 8-Acetyl-7-hydroxy-4-methylcoumarin] |  |  |  |  |  |
| 2.8179 | 0.438 | 2.5467 | 0.452 | 2.2371 | 0.401 | 2.2036 | 0.607 | 204 | N#CCOc1cc(=O)oc2ccccc12 [Compound 4, 4-(cyanomethoxy)chromen-2-one] |  |  |  |  |  |
| 2.5539 | 0.382 | 2.2314 | 0.409 | 2.0405 | 0.372 | 2.0525 | 0.567 |  | Cc1cc(=O)oc2cc(O)ccc12 [Compound 8, 7-hydroxy-4-methylcoumarin] |  |  |  |  |  |

| Structure (SMILES) | S (slope of the trend line RM vs φ) ([1]; acetonitrile/water) | φ 0 (intercept of the trend line with abscissa axis) ([1]; acetonitrile/water) | S (slope of the trend line RM vs φ) ([1]; dioxane/water) | φ 0 (intercept of the trend line with abscissa axis) ([1]; dioxane/water) | S (slope of the trend line RM vs φ) ([1]; isopropanol/water) | φ 0 (intercept of the trend line with abscissa axis) ([1]; isopropanol/water) | S (slope of the trend line RM vs φ) ([1]; methanol/water) | φ 0 (intercept of the trend line with abscissa axis) ([1]; methanol/water) | melting point [°C] | LogP value [2] | R M0 (lipophilicity extrapolated to 100 % water) ([1]; acetonitrile/water) | R M0 (lipophilicity extrapolated to 100 % water) ([1]; dioxane/water) | R M0 (lipophilicity extrapolated to 100 % water) ([1]; isopropanol/water) | R M0 (lipophilicity extrapolated to 100 % water) ([1]; methanol/water) |
| --- | --- | --- | --- | --- | --- | --- | --- | --- | --- | --- | --- | --- | --- | --- |
| CC(=O)Oc1cc(C)cc2oc(=O)cc(C)c12 [Compound 2a, 5-acetoxy-4,7-dimethylcoumarin] | 3.6418 | 0.481 | 3.2936 | 0.474 | 3.8312 | 0.424 | 2.5335 | 0.642 |  |  |  |  |  |  |
| Nc1ccc(Cl)cc1Cl [2,4-Dichloroaniline, 2,4-dichloroaniline, reference compound] | 3.3029 |  | 3.3036 |  | 4.2876 |  | 2.7739 |  |  | 2.91 | 1.8609 | 2.0135 | 2.1269 | 1.8895 |
| Nc1ccc(Cl)c(Cl)c1 [3,4-Dichloroaniline, 3,4-dichloroaniline, reference compound] | 3.2165 |  | 3.3499 |  | 4.4484 |  | 3.2073 |  |  | 2.69 | 1.7807 | 1.9357 | 2.149 | 2.1151 |
| O=[N+]([O-])c1ccccc1O [2-Nitrophenol, 2-nitrophenol, reference compound] | 2.5429 |  | 2.2497 |  | 2.9639 |  | 1.9676 |  |  |  | 1.1246 | 1.0657 | 1.2375 | 1.0469 |
| O=C1Nc2ccccc2C1=O [Isatine, isatine, reference compound] | 2.0278 |  | 1.2132 |  | 2.0065 |  | 1.4786 |  |  | 0.83 | 0.7435 | 0.3418 | 0.5885 | 0.6009 |
| O=C(c1ccccc1)c1ccccc1 [Benzophenone, benzophenone, reference compound] | 4.1335 |  | 3.6381 |  | 4.4575 |  | 3.2945 |  |  |  |  |  |  |  |
| CC(=O)Oc1ccc2c(C)cc(=O)oc2c1 [Compound 10, 7-Acetoxy-4-methylcoumarin] | 3.506 | 0.526 | 3.3341 | 0.518 | 3.436 | 0.448 | 2.3174 | 0.680 |  |  |  |  |  |  |
